Data on three molecules can be found in patent US20250129056A1, “PROCESS FOR PREPARING HISTONE DEMETHYLASE INHIBITORS” (Celgene Corporation, priority 2021, published 2025).

Usually solubility stands for how much of the substance goes into solution per volume.

SMILES strings stand for the structures. ≈ marks a conversion by molar mass, not a printed value.

Data set [1] in a line: Solubility observations in water and common organic solvents. Type of data set: physicochemical.
The nature of data set [2]: Solubility of Compound 12 in common solvents (Table 5). Type of data set: physicochemical. As to conditions: organic solvent or mixture. An excerpt: The crystallization of Compound 12 also required optimization. Studies were undertaken to find the optimal solvent system of iPrOH/MeTHF.
The subject of data set [3] is KDM4 family of histone demethylases. As to conditions: cited from earlier work.

`CC(C)(C)OC(=O)NC[C@@H]1CCOc2cc(Br)ccc21` [Compound 11]: the solubility result in data set [1] (in a number of common organic solvents including heptane) is “high”.
As to `CC(C)c1ccc(N(C)c2ccc3c(c2)OCC[C@H]3CNC(=O)OC(C)(C)C)cc1` [Compound 12], the solubility is 5 mg/mL (≈ 12.2 mM) in data set [2] (solvent 1-PrOH); 63 mg/mL (≈ 153 mM) in data set [2] (solvent 2-MeTHF); 26 mg/mL (≈ 63.3 mM) in data set [2] (solvent CPMe); 77 mg/mL (≈ 188 mM) in data set [2] (solvent DMAc); 22 mg/mL (≈ 53.6 mM) in data set [2] (solvent EtOAc); 20 mg/mL (≈ 48.7 mM) in data set [2] (solvent HOAC). The solubility in data set [2] (solvent IPA) is 3 mg/mL (≈ 7.31 mM); in data set [2] (solvent IPAc), 14 mg/mL (≈ 34.1 mM); in data set [2] (solvent MEK), 28 mg/mL (≈ 68.2 mM); in data set [2] (solvent MIBK), 17 mg/mL (≈ 41.4 mM); in data set [2] (solvent MTBE), 11 mg/mL (≈ 26.8 mM); in data set [2] (solvent MeCN) it was 5 mg/mL (≈ 12.2 mM). For the same molecule, the solubility in data set [2] (solvent MeOH) is 3 mg/mL (≈ 7.31 mM); in data set [2] (solvent THF) it was no less than 150 mg/mL; in data set [2] (solvent toluene), 27 mg/mL (≈ 65.8 mM); in data set [1] (in a number of common solvents), “low”.
For the molecule `CC(C)c1ccc(N(C)c2ccc3c(c2)OCC[C@H]3CNc2cnccc2C(=O)O)cc1` [Compound 8, 3-({[(4R)-7-{methyl[4-(propan-2-yl)phenyl]amino}-3,4-dihydro-2H-1-benzopyran-4-yl]methyl}amino)pyridine-4-carboxylic acid], the solubility result was “poor” in data set [1] (in most common solvents); “undetectable” in data set [1] (in water (low to neutral pH) and most common organic solvents, free acid); “poor” in data set [1] (in water and most common organic solvents). Further, the “inhibition of the KDM4 family of histone demethylases” value in data set [3] was “selective inhibitor”.
